Earlier results on nine molecules are cited in PubChem BioAssay AID1259410 (Chemical Carcinogenesis Research Information System (CCRIS), 2018).

This data set has as its system rodent tumor promotion studies, tumor incidence. Kind of data set: CCRIS tumor promotion studies.

As for `CCOC(N)=O`, the outcome (Carcinogen: 7,12-DIMETHYLBENZ(A)ANTHRACENE, 57-97-6, Doses [Carcinogen]: 51.2 UG IN 100 UG ACETONE ONCE, Doses [Promoter]: 0, 10% IN ACETONE 2/WK FOR 50 WK BEGINNING 2 WK POST CARCINOGEN DOSE (STUDY DURATION: 52 WK), Route [Carcinogen]: DERMAL, Route [Promoter]: DERMAL, Species: MOUSE, Strain/Sex: HR/HR/MALE,FEMALE) is “skin: papilloma”.
Consider `C=C1[C@@H](O)[C@@H]2O[C@]3(CC[C@H](/C=C/[C@@H](C)[C@@H]4CC(C)=C[C@@]5(O[C@H](C[C@@](C)(O)C(=O)O)CCC5O)O4)O3)CC[C@H]2O[C@@H]1[C@@H](O)C[C@H](C)[C@H]1O[C@@]2(CCCCO2)CC[C@H]1C` (stereo partly drawn), for which the outcome was “skin: tumor” (Carcinogen: 7,12-DIMETHYLBENZ[A]ANTHRACENE, 57-97-6, Doses [Carcinogen]: 100 UG IN 0.1 ML OF ACETONE ONCE, Doses [Promoter]: 0, 5 UG IN 0.1 ML OF ACETONE 2/WK FOR 30 WK BEGINNING 1 WK POST CARCINOGEN DOSE (STUDY DURATION: 31 WK), Route [Carcinogen]: DERMAL, Route [Promoter]: DERMAL, Species: MOUSE, Strain/Sex: CD-1/FEMALE) and “glandular stomach: neoplasms” (Carcinogen: N-METHYL-N'-NITRO-N-NITROSOGUANIDINE, 70-25-7, Doses [Carcinogen]: 100 MG/L OF DEIONIZED WATER AS DRINKING WATER FOR 8 WK, Doses [Promoter]: 0.25 MG/L IN DRINKING WATER BEGINNING 1 WK POST CARCINOGEN TREATMENT AND CONTINUING FOR 46 WK THEN 0.5 MG/L FOR 17 WK (S, Route [Carcinogen]: ORAL, Route [Promoter]: ORAL, Species: RAT, Strain/Sex: SPRAGUE-DAWLEY/MALE).
On to `C=C(C)[C@]12C[C@@H](C)[C@@]34O[C@](CCCCCCCCC)(O[C@@H]1[C@@H]3[C@@H]1O[C@]1(CO)[C@@H](O)[C@]1(O)C(=O)C(C)=C[C@H]14)O2`, for which, under “Carcinogen: 7,12-DIMETHYLBENZ(A)ANTHRACENE, Doses [Carcinogen]: 100 NMOL ONCE, Doses [Promoter]: 10, 20 NMOL 2/WK FOR 24 WK, Route [Carcinogen]: DERMAL, Route [Promoter]: DERMAL, Species: MOUSE, Strain/Sex: NMRI/FEMALE”, the outcome is reported as “integumentary system (skin): tumor (nos)”.
Regarding `C[C@@]12C(=O)OC(=O)[C@]1(C)[C@H]1CC[C@@H]2O1`, for the setting “Carcinogen: 7,12-DIMETHYLBENZ(A)ANTHRACENE, Doses [Carcinogen]: TOP, Route [Carcinogen]: DERMAL, Route [Promoter]: DERMAL, Species: MOUSE, Strain/Sex: FEMALE”, the outcome is “integumentary system (skin)”.
Turning to `Clc1cnc(Oc2ccc(Oc3ncc(Cl)cc3Cl)cc2)c(Cl)c1`, the outcome (Carcinogen: N-NITROSODIETHYLAMINE, 55-18-5, Doses [Carcinogen]: 75 MG/KG BW ONCE, Doses [Promoter]: 0, 100O PPM IN DIET FOR DURATION OF STUDY BEGINNING 2 WK POST CARCINOGEN DOSE (STUDY DURATION: 74 WK), Route [Carcinogen]: INTRAPERITONEAL, Route [Promoter]: ORAL, Species: RAT, Strain/Sex: F344/MALE) is “liver: adenoma; thyroid: follicular cell adenoma”; the outcome (Carcinogen: N-NITROSODIETHYLAMINE, 55-18-5, Doses [Carcinogen]: 75 MG/KG BW ONCE, Doses [Promoter]: 0, 330 PPM IN DIET FOR DURATION OF STUDY BEGINNING 2 WK POST CARCINOGEN DOSE (STUDY DURATION: 74 WK), Route [Carcinogen]: INTRAPERITONEAL, Route [Promoter]: ORAL, Species: RAT, Strain/Sex: F344/MALE) is “liver: adenoma”; the outcome (Carcinogen: N-NITROSODIETHYLAMINE, 55-18-5, Doses [Carcinogen]: 75 MG/KG BW ONCE, Doses [Promoter]: 30 MG/KG IN CORN OIL 1/2 WK BEGINNING 2 WK POST CARCINOGEN DOSE AND CONTINUING FOR 71 WK (STUDY DURATION: 73 WK), Route [Carcinogen]: INTRAPERITONEAL, Route [Promoter]: INTRAPERITONEAL, Species: RAT, Strain/Sex: F344/MALE) is reported as “nasal cavity: carcinoma”; the outcome (Carcinogen: N-NITROSODIETHYLAMINE, 55-18-5, Doses [Carcinogen]: 90 MG/KG BW ONCE, Doses [Promoter]: 3 MG/KG BW IN CORN OIL 1/2 WK BEGINNING 2 WK POST CARCINOGEN DOSE AND CONTINUING FOR 24 WK (STUDY DURATION: 55 WK), Route [Carcinogen]: INTRAPERITONEAL, Route [Promoter]: INTRAGASTRIC, Species: MOUSE, Strain/Sex: C57BL/MALE) was “liver: hepatocellular adenoma or carcinoma”; the outcome (Carcinogen: N-NITROSODIETHYLAMINE, 55-18-5, Doses [Carcinogen]: 90 MG/KG BW ONCE, Doses [Promoter]: 3 MG/KG BW IN CORN OIL 1/2 WK BEGINNING 2 WK POST CARCINOGEN DOSE AND CONTINUING FOR 24 WK (STUDY DURATION: 55 WK), Route [Carcinogen]: INTRAPERITONEAL, Route [Promoter]: INTRAGASTRIC, Species: MOUSE, Strain/Sex: DBA/MALE) was “liver: hepatocellular adenoma or carcinoma”; the outcome (Carcinogen: N-NITROSODIETHYLAMINE, 55-18-5, Doses [Carcinogen]: 90 MG/KG BW ONCE, Doses [Promoter]: 3 MG/KG BW IN CORN OIL 1/2 WK BEGINNING 2 WK POST CARCINOGEN DOSE AND CONTINUING FOR 24 WK (STUDY DURATION: 55 WK), Route [Carcinogen]: INTRAPERITONEAL, Route [Promoter]: INTRAPERITONEAL, Species: MOUSE, Strain/Sex: C57BL/MALE) is on record as “liver: hepatocellular adenoma or carcinoma”. Besides, the outcome (Carcinogen: N-NITROSODIETHYLAMINE, 55-18-5, Doses [Carcinogen]: 90 MG/KG BW ONCE, Doses [Promoter]: 3 MG/KG BW IN CORN OIL 1/2 WK BEGINNING 2 WK POST CARCINOGEN DOSE AND CONTINUING FOR 24 WK (STUDY DURATION: 55 WK), Route [Carcinogen]: INTRAPERITONEAL, Route [Promoter]: INTRAPERITONEAL, Species: MOUSE, Strain/Sex: DBA/MALE) is “liver: hepatocellular adenoma or carcinoma”.
Take `CCC1(CCCCCCCCCCCCC(=O)OC2C(C)C3(O)C(C=C(CO)CC4(O)C(=O)C(C)=CC43)C3C(C)(C)C23OC(C)=O)OCC(C)(C)N1[O]` (stereo not drawn): the outcome (Carcinogen: 7,12-DIMETHYLBENZ[A]ANTHRACENE, 57-97-6, Doses [Carcinogen]: 100 NMOL ONCE, Doses [Promoter]: 0, 20 NMOL 2/WK FOR 24 WK BEGINNING 1 WK POST CARCINOGEN DOSE (STUDY DURATION: 25 WK), Route [Carcinogen]: DERMAL, Route [Promoter]: DERMAL, Species: MOUSE, Strain/Sex: NMRI/FEMALE) is “skin: tumor”.
With `C=O`, the outcome (Carcinogen: Benzo[a]pyrene, 50-32-8, Doses [Carcinogen]: 150 mg applied once, Doses [Promoter]: 0 (acetone), 0.1, 0.5, 1.0 mg/mouse, 3x.wk for 26 wk, study duration 26 wk, Doses [Promoter]: 0 (acetone), 0.1, 0.5, 1.0 mg/mouse, 3x.wk for 26 wk, study duration 26 wk, Route [Carcinogen]: Not reported, Route [Promoter]: Dermal, Species: Mouse, Strain/Sex: CD-1/Female (30/Group)) was “skin: results were negative” and the outcome (Carcinogen: N,N-Diethylnitrosamine, 55-18-5, Doses [Carcinogen]: 0.5 mg injections once a wk for 10 wk, Doses [Promoter]: 30 ppm weekly doses in various combinations from wk 12 for life of the animal, Route [Carcinogen]: Subcutaneous, Route [Promoter]: Inhalation, Species: Hamster, Strain/Sex: Syrian golden/Male (50/Group_) is listed as “nasal epithelium: results were negative”.
Consider `c1c[nH]cn1`, for which the outcome (Carcinogen: N-METHYL-N-NITROSOUREA, 684-93-5, Doses [Carcinogen]: 40 MG/KG ONCE, Doses [Promoter]: 1000 MG/KG OF HIGH (20%) FAT DIET BEGINNING 1 WK POST CARCINOGEN DOSE AND CONTINUING FOR DURATION OF STUDY (STUDY DURATI, Route [Carcinogen]: SUBCUTANEOUS, Route [Promoter]: ORAL, Species: RAT, Strain/Sex: SPRAGUE-DAWLEY/FEMALE) is “mammary gland: tumor”.
As to `CN(C)c1ncnc2nc[nH]c12`, the outcome is recorded as “liver: hepatocellular carcinoma” (Carcinogen: DIETHYLNITROSAMINE, 55-18-5, 2-ACETYLAMINOFLUORENE, 53-96-3, CARBON TETRACHLORIDE, 56-23-5, Carcinogen: DIETHYLNITROSAMINE, 55-18-5, 2-ACETYLAMINOFLUORENE, 53-96-3, CARBON TETRACHLORIDE, 56-23-5, Doses [Carcinogen]: 200 MG/KG BW ONCE FOLLOWED 2 WK LATER BY 0.03% 2-ACETYLAMINOFLUORENE IN DIET FOR 2 WK PLUS 2 ML/KG CARBON TETRACHLORIDE, Doses [Promoter]: 0, 0.015% IN DIET FOR 21 WK BEGINNING AT END OF INITIATION PHASE (STUDY DURATION: 25 WK), Route [Carcinogen]: INTRAPERITONEAL, ORAL, Route [Carcinogen]: INTRAPERITONEAL, ORAL, Route [Promoter]: ORAL, Species: RAT, Strain/Sex: WISTAR/MALE) and “liver: hepatocellular carcinoma” (Carcinogen: DIETHYLNITROSAMINE, 55-18-5, Doses [Carcinogen]: 200 MG/KG BW ONCE, Doses [Promoter]: 0, 0.005, 0.02% IN DIET FOR 23 WK BEGINNING 2 WK POST CARCINOGEN TREATMENT (STUDY DURATION: 25 WK), Doses [Promoter]: 0, 0.005, 0.02% IN DIET FOR 23 WK BEGINNING 2 WK POST CARCINOGEN TREATMENT (STUDY DURATION: 25 WK), Route [Carcinogen]: INTRAPERITONEAL, Route [Promoter]: ORAL, Species: RAT, Strain/Sex: WISTAR/MALE).
